Reference: US5387599A, “Triazoles, their production and use” (Takeda Chemical Industries, Ltd., priority 1990, dated 1995)
Structures can show the parent of a compound that is named as a salt.

How the values were obtained:
[1] = system: Pyricularia oryzae; format: in vivo, Pyricularia oryzae (on rice); conditions: 200 ppm; rice seedling, 6 days after inoculation
[2] = system: Candida utilis IFO 0619; assay: paper disk growth inhibition on agar (antifungal spectrum); format: cell-based; conditions: Williopsis jadinii, IFO0619, 48 h, medium A (yeast nitrogen base agar, pH 7.0), 1000 μg/ml, 8 mm disk, 2 days, 28° C., read-out: Diameter of growth inhibition zone
Method: (§1) Evaluation for fungicidal acitivity of the compound (I) was carried out by the following method.
(§2) A paper disk (manufactured by TOYO SEISAKUSHO, 8mm in diameter) dipped into a methanol solution containing the compound (I) in an amount of 1000 μg/ml was placed on an agar plate containing various fungi. After the cultivation of said fungi for two days at 28° C., mesurement was made to the diameter of a growth inhibiton zone produced around the paper disk. The media used for the evaluation are as follows:
(§3) A: Yeast nitrogen base agar (pH 7.0)

[3] = system: Cryptococcus neoformans IFO 0410; assay: as above; format: cell-based; conditions: IFO0410, 48 h, medium A (yeast nitrogen base agar, pH 7.0), 1000 μg/ml, 8 mm disk, 2 days, 28° C., read-out: Diameter of growth inhibition zone
Method: as §1, §2, §3

[4] = system: Aspergillus fumigatus IFO 6344; assay: as above; format: cell-based; conditions: IFO6344, 48 h, medium A (yeast nitrogen base agar, pH 7.0), 1000 μg/ml, 8 mm disk, 2 days, 28° C., read-out: Diameter of growth inhibition zone
Method: as §1, §2, §3

[5] = system: Aspergillus niger IFO 4066; assay: as above; format: cell-based; conditions: IFO4066, 48 h, medium A (yeast nitrogen base agar, pH 7.0), 1000 μg/ml, 8 mm disk, 2 days, 28° C., read-out: Diameter of growth inhibition zone
Method: as §1, §2, §3

[6] = system: Candida albicans IFO 0583; assay: as above; format: cell-based; conditions: IFO0583, 48 h, medium A (yeast nitrogen base agar, pH 7.0), 1000 μg/ml, 8 mm disk, 2 days, 28° C., read-out: Diameter of growth inhibition zone
Method: as §1, §2, §3

[7] = system: Erysiphe graminis; assay: preventive effect against powdery mildew of barley (Experimental Method 1); format: in vivo, Erysiphe graminis (on barley); conditions: 200 ppm; barley seedling, 8 days after inoculation
Method: Experimental Method 1 Experiment for preventive effect against powdery mildew of barley (Erysiphe graminis) […] The resultant solution was diluted with water to obtain a predetermined concentration of the active ingredient. To this diluted solution was added a sticker Dyne®[manufactured by Takeda Chemical Industries, Ltd., and including polyoxyethylenenonylphenylether (10 wt. %) and potassium ligninsulfonate (10 wt. %)] in a ratio of 0.03 wt. % (end concentration) to prepare a spray. Thus obtained spray was sprayed to a barley seedling (about one week seeding) such that the spray was dripped from the seedling. After air-drying, the spore of susceptible leaf with Erysiphe graminis was forcibly deposited for inoculation. The spore was maintained at an artificial inoculation chamber at a temperature of 20° C. for 8 days after the inoculation. Thereafter, the area rate of lesion was examined to represent the preventive value by the following coefficient. […] Preventive value 2: area rate of lesion 11-20% Preventive value 1: area rate of lesion 21-50% Preventive value 0: area rate of lesion 51% or more

[8] = system: Candida albicans; assay: protective effect against experimental infection in mice; conditions: in Mus musculus, 168 h
Method: 5-Week old Crj:CDF1 mice were inoculated with the minimum lethal dose of Candida albicans in its vein or abdominal cavity. A drug was administered once immediately after the infection or twice, i.e., immediately after and two hours after the infection. The drug effect was shown with ED50 value calculated by Reed and Muench method from the survival ratio on day 7 after infection. The ED50 value was calculated from the total dose.

[9] = system: Trichophyton rubrum IFO 6467; assay: paper disk growth inhibition on agar (antifungal spectrum); format: cell-based; conditions: IFO6467, 48 h, medium B (Sabouraud's agar), 1000 μg/ml, 8 mm disk, 2 days, 28° C., read-out: Diameter of growth inhibition zone
Method: as §1
as §2, with “disk.” for “disk. The media used for the evaluation are as follows:”

[10] = system: Trichophyton methagrophytes IFO 7522; assay: as above; format: cell-based; conditions: IFO7522, 48 h, medium B (Sabouraud's agar), 1000 μg/ml, 8 mm disk, 2 days, 28° C., read-out: Diameter of growth inhibition zone
Method: as §1
as §2, with “disk.” for “disk. The media used for the evaluation are as follows:”

[11] = system: Microsporum gypseum IFO 6075; assay: as above; format: cell-based; conditions: Nannizzia gypsea, IFO6075, 48 h, medium B (Sabouraud's agar), 1000 μg/ml, 8 mm disk, 2 days, 28° C., read-out: Diameter of growth inhibition zone
Method: as §1
as §2, with “disk.” for “disk. The media used for the evaluation are as follows:”

Row | SMILES | Preventive Value for Pyricularia oryzae [1] | zone of inhibition at 1000 µg/mL [2] [mm] | zone of inhibition at 1000 µg/mL [3] [mm] | zone of inhibition at 1000 µg/mL [4] [mm] | zone of inhibition at 1000 µg/mL [5] [mm] | zone of inhibition at 1000 µg/mL [6] [mm] | Preventive Value for Erysiphe graminis [7] | ED50 ([8]; po) [mg/kg] | zone of inhibition at 1000 µg/mL [9] [mm] | zone of inhibition at 1000 µg/mL [10] [mm] | zone of inhibition at 1000 µg/mL [11] [mm] | ED50 ([8]; sc) [mg/kg]
1 | CCN(CC)C(=S)S[C@H](C)[C@](O)(Cn1cncn1)c1ccc(F)cc1F.Cl [Compound 2, [(2R,3R)-3-(2,4-difluorophenyl)-3-hydroxy-4-(1H-1,2,4-triazol-1-yl)-2-butyl] N,N-diethyldithiocarbamate hydrochloride] | 3 (area rate of lesion 0-14%) | 40 | 30 | 50 | 35 | 30 | 3 (area rate of lesion 0-10%) | 0.5 | 40 | 48 | 48 | 
2 | CCN(CC)C(=S)S[C@H](C)[C@](O)(Cn1cncn1)c1ccc(F)cc1F (racemic) [Compound 1, [(2RS,3RS)-3-(2,4-difluorophenyl)-3-hydroxy-4-(1H-1,2,4-triazol-1-yl)-2butyl] N,N-diethyldithiocarbamate] | 3 (area rate of lesion 0-14%) | 32 | 35 | 45 | 28 | 40 | 3 (area rate of lesion 0-10%) |  | 35 | 40 | 40 | 2
3 | Cc1cccc(N(C)C(=S)S[C@H](C)[C@](O)(Cn2cncn2)c2ccc(F)cc2F)c1 [Compound 9, [(2R,3R)-3-(2,4-difluorophenyl)-3-hydroxy-4-(1H,1,2,4-triazol-1-yl)-2-butyl] N-methyl-N-(3-methylphenyl) dithiocarbamate hydrochloride] |  | 20 | 20 | 15 | 13 | 25 |  | 2 | 30 | 15 | 20 | 
